Source: patent publication US10533010B2, “Substituted indole Mcl-1 inhibitors” (Vanderbilt University, priority 2014, dated 2020)
pIC50, pKi: −log10 of the molar value. Read-outs that look alike come from different tables or passages of the source.

Legend:
[1] = biological target: recombinant Mcl-1 (residues 172-327) (Homo sapiens (Human), UniProt Q07820); assay: Fluorescence polarization anisotropy competition assay (FITC-Bak or FITC-Bim BH3 peptide) with Mcl-1; format: binding; settings: for Ki: Table 2, Ki bins given in nM, FITC-Bak or FITC-Bim peptide competition, Ki converted from IC50, read-out: Ki for Inhibition of Mcl-1; for pKi: Table 3, selectivity panel, read-out: Mcl-1 Ki
[2] = biological target: Bcl-xL (residues 1-209, loop 45-86 deleted) (Homo sapiens (Human), UniProt Q07817, DEL45-86); assay: Fluorescence polarization anisotropy competition selectivity assay (FITC-Bak peptide) with Bcl-xL; format: binding; settings: Table 3; 4 nM Bcl-xL, 10 nM FITC-Bak
Method: (§1) Compound affinity was measured using a fluorescence polarization anisotropy competition assay. Anisotropy measurements were carried out in 384-well, black, flat-bottom plates (Greiner Bio-one, Monroe, N.C., USA). The assay was run using either a fluorescein isothiocyanate-labeled BH3 peptide derived from Bak (FITC-AHx-[…]-NH2) or a fluorescein isothiocyanate-labeled BH3 peptide derived from Bim (FITC-AHx-[…]-NH2) that were purchased from GenScript (Piscataway, N.J.) at >95% purity and used without further purification. 10 nM FITC-Bak peptide and 15 nM recombinant Mcl-1 (residues 172-327) were added to assay buffer (3 mM dithiothreitol, 50 mM NaCl, 20 mM Tris, pH 7.5). The Bim based assay was run with 1 nM FITC-Bim peptide and 1.5 nM recombinant Mcl-1 (residues 172-327) added to assay buffer (20 mM TRIS pH 7.5, 50 mM NaCl, 3 mM DTT, 0.01% CHAPS). For selectivity assays, 40 nM Bcl-2 (residues 1-207^A96T,G110R, Δ35-91, replaced with Bcl-xL35-50) or 4 nM Bcl-xL (residues 1-209, loop 45-86 deleted) were incubated with 10 nM FITC-Bak in assay buffer.
(§2) Compounds are diluted in DMSO in a 10-point, 3-fold serial dilution scheme. For the FITC-BAK assay 2.5 uL compound is added to 47.5 μL of assay buffer containing FITC-Bak and protein, for a final DMSO concentration of 5% and a top concentration of 20 μM. […] […]. The plate was mixed and incubated for 90 minutes at room temperature. Anisotropy is measured at excitation wavelength 480 nm and emission wavelength 535 nm using an EnVision Multi-label plate reader (PerkinElmer, Wellesley, Mass., USA) or a BioTek Cytation 3 (BioTek, Winooski, Vt., USA). […] IC50 is converted to a binding dissociation constant (Ki value) according to the formula of Wang Z. FEBS Lett (1996) 3, 245.

[3] = biological target: Bcl-2 (residues 1-207 A96T,G110R, Δ35-91, replaced with Bcl-xL35-50) (Homo sapiens, UniProt P10415, A37E/DEL42-87/G36T/INS34DVEEN/P40E/P88T/P90S/P91E/V35R/V89E); assay: Fluorescence polarization anisotropy competition selectivity assay (FITC-Bak peptide) with Bcl-2; format: binding; settings: Table 3; 40 nM Bcl-2, 10 nM FITC-Bak
Method: as §1, §2

ALMC-1 = assay: Cellular viability (Cell TiterGlo) ALMC-1; format: cell-based; settings: Homo sapiens, ALMC1; ALMC-1 cells, 72 hours, 10% FBS; read-out: IC50 on cellular proliferation, ALMC-1
Method: (§3) Human cancer cell lines ALMC-1, ALMC-2, K562, H929, and OPM-2 were cultured in media supplemented with 10% fetal bovine serum (FBS). To evaluate compound effect on cellular proliferation, cells were plated at 1,000 cells/well in 96-well tissue culture plates in a total volume of 90 μL medium supplemented with 10% FBS (Sigma, Saint Louis, Mo.). 24 hours later, 10 μL of compound (in a 2-fold serial dilution) is added to the cells for a top concentration of 50 μM and a final DMSO concentration <1%. After 72 hours, 50 μL of Cell TiterGlo (Promega, Madison, Wis., USA) reagent is added to each well and plates are incubated at room temperature, in the dark, for 30 minutes. Luminescence is measured on a BioTek Cytation 3. Luminescence values are imported into a template in XLFit (Guildford, Surrey, UK) that uses a four-parameter fit to generate an IC50 value for each compound dilution series on the plate.

ALMC-2 = assay: Cellular viability (Cell TiterGlo) ALMC-2; format: cell-based; settings: Homo sapiens, ALMC2; ALMC-2 cells, 72 hours, 10% FBS; read-out: IC50 on cellular proliferation, ALMC-2
Method: as §3

H929 = assay: Cellular viability (Cell TiterGlo) H929; format: cell-based; settings: Homo sapiens, NCI-H929; H929 cells, 72 hours, 10% FBS; read-out: IC50 on cellular proliferation, H929
Method: as §3

OPM-2 = assay: Cellular viability (Cell TiterGlo) OPM-2; format: cell-based; settings: Homo sapiens; OPM-2 cells, 72 hours, 10% FBS; read-out: IC50 on cellular proliferation, OPM-2
Method: as §3

K562 = assay: Cellular viability (Cell TiterGlo) K562; format: cell-based; settings: Homo sapiens; K562 cells, 72 hours, 10% FBS; read-out: IC50 on cellular proliferation, K562
Method: as §3

Sequence of recombinant Mcl-1 (residues 172-327) (Q07820 172-327): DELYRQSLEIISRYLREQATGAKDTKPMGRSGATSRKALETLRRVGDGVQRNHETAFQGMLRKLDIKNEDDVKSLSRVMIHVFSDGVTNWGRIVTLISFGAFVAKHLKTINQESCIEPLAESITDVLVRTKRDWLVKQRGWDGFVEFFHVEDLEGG
Sequence of Bcl-xL (residues 1-209, loop 45-86 deleted) (Q07817 other isoform, or with tags, fused parts or gaps del 45-86): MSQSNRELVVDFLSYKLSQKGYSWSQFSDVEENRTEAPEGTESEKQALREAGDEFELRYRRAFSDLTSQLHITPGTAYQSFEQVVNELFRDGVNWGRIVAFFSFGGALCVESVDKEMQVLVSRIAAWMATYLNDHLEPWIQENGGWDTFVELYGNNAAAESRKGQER

| Structure (SMILES) | Ki [1] [nM] | pKi [2] | pKi [3] | other results |
| --- | --- | --- | --- | --- |
| Cc1cc(OCCCc2c3n(c4c(-c5c(C)nn(C)c5C)cccc24)CCN(Cc2cccc(C(=O)O)c2)C3=O)cc(C)c1Cl [I-31, 3-((10-(3-(4-chloro-3,5-dimethylphenoxy)propyl)-1-oxo-6-(1,3,5-trimethyl-1H-pyrazol-4-yl)-3,4-dihydropyrazino[1,2-a]indol-2(1H)-yl)methyl)benzoic acid] | […] | 5.19 | 5.66 | pKi [1]: […]; pIC50 (ALMC-1): 4.88; pIC50 (ALMC-2): 4.47; pIC50 (H929): 4.82; pIC50 (OPM-2): 4.79; pIC50 (K562): 4.40 |
| Cc1cc(OCCCc2c3n(c4c(-c5c(C)nn(C)c5C)cccc24)CCCN(Cc2cccc(C(=O)O)c2)C3=O)cc(C)c1Cl [I-32, 3-((11-(3-(4-chloro-3,5-dimethylphenoxy)propyl)-1-oxo-7-(1,3,5-trimethyl-1H-pyrazol-4-yl)-4,5-dihydro-1H-[1,4]diazepino[1,2-a]indol-2(3H)-yl)methyl)benzoic acid] | – | 4.87 | 5.42 | – |
| Cc1cc(OCCCc2c(C(=O)Nc3cccc(C(=O)O)c3)[nH]c3c(-c4c(C)nn(C)c4C)c(Cl)ccc23)cc(C)c1Cl [I-39, 3-(6-chloro-3-(3-(4-chloro-3,5-dimethylphenoxy)propyl)-7-(1,3,5-trimethyl-1H-pyrazol-4-yl)-1H-indole-2-carboxamido)benzoic acid] | – | 5.34 | 5.81 | – |
| Cc1cc(OCCCc2c(C(=O)NCc3c[nH]c(C(=O)O)c3)[nH]c3c(-c4c(C)nn(C)c4C)cccc23)cc(C)c1Cl [I-71, 4-((3-(3-(4-chloro-3,5-dimethylphenoxy)propyl)-7-(1,3,5-trimethyl-1H-pyrazol-4-yl)-1H-indole-2-carboxamido)methyl)-1H-pyrrole-2-carboxylic acid] | – | 4.86 | 5.23 | – |
| Cc1cc(OCCCc2c(C(=O)NCc3cc(C(=O)O)n(C)c3)[nH]c3c(-c4c(C)nn(C)c4C)cccc23)cc(C)c1Cl [I-74, 4-((3-(3-(4-chloro-3,5-dimethylphenoxy)propyl)-7-(1,3,5-trimethyl-1H-pyrazol-4-yl)-1H-indole-2-carboxamido)methyl)-1-methyl-1H-pyrrole-2-carboxylic acid] | […] | < 4.00 | 5.45 | pKi [1]: […] |
| Cc1cc(OCCCc2c3n(c4c(-c5c(C)nn(C)c5C)c(Cl)ccc24)CCCN(Cc2cccc(C(=O)O)c2)C3=O)cc(C)c1Cl [I-80, 3-((8-chloro-11-(3-(4-chloro-3,5-dimethylphenoxy)propyl)-1-oxo-7-(1,3,5-trimethyl-1H-pyrazol-4-yl)-4,5-dihydro-1H-[1,4]diazepino[1,2-a]indol-2(3H)-yl)methyl)benzoic acid] | – | 5.17 | 5.63 | – |
| Cc1cc(OCCCc2c3n(c4c(-c5c(C)nn(C)c5C)c(Cl)ccc24)CCCN(c2cccc(C(=O)O)c2)C3=O)cc(C)c1Cl [I-177, 3-(8-chloro-11-(3-(4-chloro-3,5-dimethylphenoxy)propyl)-1-oxo-7-(1,3,5-trimethyl-1H-pyrazol-4-yl)-4,5-dihydro-1H-[1,4]diazepino[1,2-a]indol-2(3H)-yl)benzoic acid] | – | – | 5.72 | – |
| Cc1cc(OCCCc2c(C(=O)Nc3cncc(C(=O)O)c3)[nH]c3c(-c4c(C)nn(C)c4C)c(Cl)ccc23)cc(C)c1Cl [I-181, 5-(6-chloro-3-(3-(4-chloro-3,5-dimethylphenoxy)propyl)-7-(1,3,5-trimethyl-1H-pyrazol-4-yl)-1H-indole-2-carboxamido)nicotinic acid] | – | 4.21 | 5.49 | – |
| Cc1cc(OCCCc2c(C(=O)Nc3cc(C(=O)O)ccn3)[nH]c3c(-c4c(C)nn(C)c4C)c(Cl)ccc23)cc(C)c1Cl [I-183, 2-(6-chloro-3-(3-(4-chloro-3,5-dimethylphenoxy)propyl)-7-(1,3,5-trimethyl-1H-pyrazol-4-yl)-1H-indole-2-carboxamido)isonicotinic acid] | – | 4.84 | 5.54 | – |
| Cc1cc(OCCCc2c(C(=O)Nc3cccc(C(=O)O)c3)n(C)c3c(-c4c(C)nn(C)c4C)c(Cl)ccc23)cc(C)c1Cl [I-188, 3-(6-chloro-3-(3-(4-chloro-3,5-dimethylphenoxy)propyl)-1-methyl-7-(1,3,5-trimethyl-1H-pyrazol-4-yl)-1H-indole-2-carboxamido)benzoic acid] | – | 4.81 | 5.28 | – |
| Cc1cc(OCCCc2c(C(=O)N(C)c3cccc(C(=O)O)c3)n(C)c3c(-c4c(C)nn(C)c4C)c(Cl)ccc23)cc(C)c1Cl [I-189, 3-(6-chloro-3-(3-(4-chloro-3,5-dimethylphenoxy)propyl)-N,1-dimethyl-7-(1,3,5-trimethyl-1H-pyrazol-4-yl)-1H-indole-2-carboxamido)benzoic acid] | < 50 | 5.33 | 5.86 | pKi [1]: > 8.15 |
| Cc1cc(OCCCc2c(C(=O)Nc3ccc(C(=O)O)cc3)[nH]c3c(-c4c(C)nn(CCN5CCOCC5)c4C)c(Cl)ccc23)cc(C)c1Cl [I-190, 4-(6-chloro-3-(3-(4-chloro-3,5-dimethylphenoxy)propyl)-7-(3,5-dimethyl-1-(2-morpholinoethyl)-1H-pyrazol-4-yl)-1H-indole-2-carboxamido)benzoic acid] | […] | 4.34 | 5.79 | pKi [1]: […] |
| Cc1cc(C(=O)O)cc(N2CCCn3c(c(CCCOc4cc(C)c(Cl)c(C)c4)c4ccc(Cl)c(-c5c(C)nn(C)c5C)c43)C2=O)c1 [I-220, 3-(8-chloro-11-(3-(4-chloro-3,5-dimethylphenoxy)propyl)-1-oxo-7-(1,3,5-trimethyl-1H-pyrazol-4-yl)-4,5-dihydro-1H-[1,4]diazepino[1,2-a]indol-2(3H)-yl)-5-methylbenzoic acid] | < 50 | – | – | pIC50 (H929): 5.31; pIC50 (K562): 4.83 |
| Cc1cc(OCCCc2c3n(c4c(-c5c(C)nn(C)c5C)c(Cl)ccc24)CCCN(c2cccc(CC(=O)O)c2)C3=O)cc(C)c1Cl [I-236, 2-(3-(8-chloro-11-(3-(4-chloro-3,5-dimethylphenoxy)propyl)-1-oxo-7-(1,3,5-trimethyl-1H-pyrazol-4-yl)-4,5-dihydro-H-[1,4]diazepino[1,2-a]indol-2(3H)-yl)phenyl)acetic acid] | < 50 | – | – | pIC50 (ALMC-1): 5.16; pIC50 (ALMC-2): 4.91; pIC50 (H929): 5.14; pIC50 (OPM-2): 5.14; pIC50 (K562): 4.60 |
| Cc1cc(OCCCc2c(C(=O)NCc3cc(C(=O)O)ccn3)[nH]c3c(-c4c(C)nn(C)c4C)cccc23)cc(C)c1Cl [I-280, 2-((3-(3-(4-chloro-3,5-dimethylphenoxy)propyl)-7-(1,3,5-trimethyl-1H-pyrazol-4-yl)-1H-indole-2-carboxamido)methyl)isonicotinic acid] | – | 4.57 | 5.10 | – |
